# Results as given in paper PMC8287944, “5-Fluorouracil blocks quorum-sensing of biofilm-embedded methicillin-resistant Staphylococcus aureus in mice” (Nucleic Acids Research, 2021).
# Tests used:
# [1] = system: HEK-293AI2 cells; format: cell-based, human; details: human, 5 µM
# Protocol: To monitor viable cells with active metabolism, we employed a fast resazurin assay. […] To calculate the relative cell viability, the fluorescence of DMSO-treated cells was set to 100%.
# Figure 2. Cell-based primary screen for AI-2 biosynthesis inhibitors. (A) Detailed assay protocol of the primary screen using engineered mammalian cells to identify inhibitors of quorum sensing. […] Aliquots of 10 μl of culture supernatants were transferred to black-bottomed assay plates and mixed with 40 μl of V. harveyi MM32 (AI-2 biosensor). AI-2-induced bioluminescence was measured 4 h later and normalized against the controls. In a secondary screen, the dose-response relationships of hit compounds are analyzed. To simultaneously assess effects on cell viability, compound-treated cells were supplemented with PrestoBlue and incubated for 1 h prior to resorufin fluorescence quantification. (B) Z’-evaluation of the AI-2 inhibitor assay. […] Bioactivity and viability are calculated as percentages, based on the positive control value (taken as 100%) and negative control value (taken as 0%). […] Data points in (C) represent means of biological duplicates.
# [2] = system: V. harveyi (BB170); experiment: V. harveyi BB170 growth (OD600 after 24 h); format: cell-based, Vibrio harveyi; details: V. harveyi BB170, OD600 after 24 h
# Protocol: The test strain V. harveyi BB170 was grown overnight in Luria Marine (LM)-medium ([25]). The culture was 1:500 diluted in AB-medium (0.3 M NaCl, 10 mM potassium phosphate, 1 mM L-arginine, […], 1% glycerol) the next day, and then challenged with various chemical compounds. After 5 h of shaking at 200 rpm at 30°C, the bioluminescence of BB170 was quantified on a GENios Pro plate reader (Tecan, Männedorf, Switzerland).
# Figure 3. Bioactivity of hit candidates against Vibrio harveyi. Effect on bacterial growth. V. harveyi (BB170) was grown in the presence of individual compounds (A–H) for 5 h and the bioluminescence (green circles) was quantified. After a total of 24 h, bacterial growth (+) was evaluated by measuring the optical density (OD600). The gray translucent background in (C) represents the narrow range within which the compound reduces bioluminescence without affecting growth.
# [3] = system: E. coli; experiment: E. coli quorum sensing / AI-2 activity in supernatant; format: cell-based, Escherichia coli; details: Supplementary Figure S3
# Protocol: The test strain E. coli RP437 was grown overnight in LB. Its optical density was measured on a Novaspec II photometer (Pharmacia, Freiburg, Germany) and the culture was diluted to a final OD600 of 0.1 the next morning. The bacteria were challenged with test compounds for 3 h, and then AI-2 activity in the culture supernatant was determined. Specifically, 90 μl of the AI-2 reporter strain V. harveyi (MM32), grown overnight in LM medium and then prediluted 1:500 in AB-medium containing 30 μg/ml kanamycin, was added to 10 μl of E. coli supernatant (10% v/v) in black-bottomed Fluotrac 200 96-well plates (Greiner Bio-One, Frickenhausen, Germany), which were shaken at 200 rpm, at 30°C. The AI-2 induced bioluminescence of MM32 was measured after 5 h. […]
# Supplementary Figure 3 | Effect of hit candidates on Escherichia coli. […] AI-2-secreting E. coli (XL10-Gold) was grown for 3 h and AI-2 activity in the supernatant was quantified. […] Optical density (OD600) was measured after 24 h as a measure of cell growth. […] Then, planktonic cell growth (OD600) was measured and biofilm formation was quantified by means of crystal violet staining. (d) AI-2-secreting E. coli (RP437) was grown for 3 h in the presence of different compounds (10 µM), and then AI-2 activity in the supernatant was quantified. Optical density (OD600) was measured after 24 h.
structure (smiles),measurement,setting,value
O=c1[nH]cc(F)c(=O)[nH]1 [5-Fluorouracil],Viability of Ctrl (%),[1],1.53%
same,Effect on V. harveyi growth,[2],without decreasing the growth
same,Effect on E. coli quorum sensing,[3],interfered with E. coli quorum sensing
